The target in assay [1] is Muscarinic acetylcholine receptor M3 (Homo sapiens, UniProt P20309). The experiment in a line: Displacement of [3H]-N-methyl Scopolamine Chloride from human M3 receptor membranes incubated for 2 hrs by scintillation counting analysis. The class given is cell membranes, Cell membrane. (In general: In a radioligand displacement assay an active substance lowers the binding of a labelled ligand.)

Assay [2] deals with 3',5'-cyclic-AMP phosphodiesterase 4B (Homo sapiens, UniProt Q07343). The experiment in a line: Inhibition of human recombinant PDE4B2 assessed as […] in cAMP level incubated for 2 hrs by LANCE Ultra cAMP TR-FRET assay.
Assay [3] can be described thus: Antagonist activity at muscarinic M3 receptor in guinea pig trachea assessed as inhibition of carbachol-induced contraction. The class given is tissue-based, Cavia porcellus.
A short description of assay [4]: Antiinflammatory activity in human PBMCs assessed as inhibition of LPS-induced TNF-alpha release measured after 18 hrs by ELISA. It counts as functional, tissue-based, PBMC. The settings on record: for IC50: Homo sapiens, PBMC, 18 h; for pIC50: pbmc. (In general: In an ELISA, binding on a coated surface is turned into a signal by an enzyme label.)
The target of assay [5] is 3',5'-cyclic phosphodiesterase. Put plainly: Inhibition of PDE4 in human U-937 cells assessed as […] in cAMP level by LANCE cAMP Assay. The class given is cell-based.
Assay [6] addresses Muscarinic acetylcholine receptor M3 (Rattus norvegicus, UniProt P08483). The experiment in a line: Antagonist activity at muscarinic M3 receptor in rat trachea assessed as inhibition of carbachol-induced contraction. The class given is functional, tissue-based.

Where only a bound is given, the exact number is not on record here.

Broadly, the Ki is a dissociation constant, usually derived from enzyme kinetics or from competition with a known ligand. Read a high Ki as weaker binding. For orientation: IC50 means the concentration that inhibits the measured activity by half. What is called pIC50 is the negative decadic logarithm of the IC50, by convention in mol/L. As a reminder, the pKi is −log10 of the Ki, conventionally taken in molar units. A high value points to a low Ki.

Muscarinic acetylcholine receptor M3 (Rattus norvegicus, UniProt P08483), sequence (P08483 whole entry): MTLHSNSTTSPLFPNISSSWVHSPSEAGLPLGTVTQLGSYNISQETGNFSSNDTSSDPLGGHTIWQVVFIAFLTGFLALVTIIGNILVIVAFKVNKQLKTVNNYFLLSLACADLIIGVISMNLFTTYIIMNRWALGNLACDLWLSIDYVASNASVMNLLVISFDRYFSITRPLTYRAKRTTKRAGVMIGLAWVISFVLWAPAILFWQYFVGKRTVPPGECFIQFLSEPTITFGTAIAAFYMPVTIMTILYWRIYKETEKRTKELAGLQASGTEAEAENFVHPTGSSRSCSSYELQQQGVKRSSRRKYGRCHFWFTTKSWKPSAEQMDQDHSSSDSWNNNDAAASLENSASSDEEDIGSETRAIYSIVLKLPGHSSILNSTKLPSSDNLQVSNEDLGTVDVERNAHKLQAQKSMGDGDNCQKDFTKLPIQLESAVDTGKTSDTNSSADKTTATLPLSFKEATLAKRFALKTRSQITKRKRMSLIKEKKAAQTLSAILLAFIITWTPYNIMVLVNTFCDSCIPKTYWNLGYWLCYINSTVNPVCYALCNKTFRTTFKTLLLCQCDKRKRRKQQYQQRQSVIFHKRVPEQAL
3',5'-cyclic-AMP phosphodiesterase 4B, sequence (Q07343 whole entry): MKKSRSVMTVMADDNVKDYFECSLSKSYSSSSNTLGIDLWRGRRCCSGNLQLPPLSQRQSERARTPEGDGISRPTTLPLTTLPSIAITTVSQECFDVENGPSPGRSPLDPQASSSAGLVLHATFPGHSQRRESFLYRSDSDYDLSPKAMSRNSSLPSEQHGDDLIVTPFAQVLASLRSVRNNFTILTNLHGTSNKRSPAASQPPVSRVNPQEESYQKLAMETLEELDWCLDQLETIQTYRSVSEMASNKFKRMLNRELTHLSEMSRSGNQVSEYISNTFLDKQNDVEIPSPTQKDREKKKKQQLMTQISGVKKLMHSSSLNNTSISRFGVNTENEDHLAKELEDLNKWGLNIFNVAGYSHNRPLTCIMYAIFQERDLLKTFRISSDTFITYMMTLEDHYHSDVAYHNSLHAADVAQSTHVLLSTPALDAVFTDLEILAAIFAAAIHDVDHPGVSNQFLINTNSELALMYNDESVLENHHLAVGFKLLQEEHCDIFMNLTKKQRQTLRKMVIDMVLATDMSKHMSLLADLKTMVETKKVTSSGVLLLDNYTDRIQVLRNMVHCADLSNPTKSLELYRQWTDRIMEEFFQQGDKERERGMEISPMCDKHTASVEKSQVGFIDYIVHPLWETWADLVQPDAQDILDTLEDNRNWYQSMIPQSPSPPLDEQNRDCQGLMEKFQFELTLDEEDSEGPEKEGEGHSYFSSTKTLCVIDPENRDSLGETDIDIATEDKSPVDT
Muscarinic acetylcholine receptor M3 (Homo sapiens, UniProt P20309), sequence (P20309 whole entry): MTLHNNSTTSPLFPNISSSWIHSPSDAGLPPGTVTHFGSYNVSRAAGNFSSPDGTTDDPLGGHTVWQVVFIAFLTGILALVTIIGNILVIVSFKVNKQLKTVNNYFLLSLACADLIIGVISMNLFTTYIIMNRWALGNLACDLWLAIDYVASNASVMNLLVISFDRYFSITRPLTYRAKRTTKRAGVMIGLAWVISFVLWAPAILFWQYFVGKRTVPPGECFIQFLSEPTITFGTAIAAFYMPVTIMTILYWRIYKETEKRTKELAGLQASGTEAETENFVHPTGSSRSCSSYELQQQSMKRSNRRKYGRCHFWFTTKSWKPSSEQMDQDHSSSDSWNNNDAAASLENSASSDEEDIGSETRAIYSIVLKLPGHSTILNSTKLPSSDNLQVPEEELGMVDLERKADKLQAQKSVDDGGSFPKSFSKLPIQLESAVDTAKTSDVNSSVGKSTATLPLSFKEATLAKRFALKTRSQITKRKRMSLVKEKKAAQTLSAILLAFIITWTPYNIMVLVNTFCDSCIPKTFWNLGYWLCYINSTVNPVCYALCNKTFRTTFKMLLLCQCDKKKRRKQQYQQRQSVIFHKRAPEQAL

On to `COc1ccc([C@H](Cc2c(Cl)c[n+]([O-])cc2Cl)OC(=O)c2ccc(CN(C(=O)O[C@H]3CN4CCC3CC4)c3cccnc3)s2)cc1OC`, for which the affinity in assay [1], expressed as Ki, was 7.94 nM.
Consider `COc1ccc([C@H](Cc2c(Cl)c[n+]([O-])cc2Cl)OC(=O)c2ccc(CN(C(=O)O[C@H]3CN4CCC3CC4)c3ccccc3)cc2F)cc1OC`, for which the IC50 in assay [2] is 2.51 nM; in assay [4] it was 0.126 nM. Moreover, the pIC50 in assay [3] came to 8.6. In addition, the Ki in assay [1] is 0.158 nM.
Turning to `COc1ccc([C@H](Cc2c(Cl)c[n+]([O-])cc2Cl)OC(=O)c2ccc(F)c(CN(C(=O)O[C@H]3CN4CCC3CC4)c3ccccc3)c2)cc1OC`, the half-inhibitory concentration (IC50) in assay [2] was 7.94 nM; in assay [4], 2 nM. In assay [3], the pIC50 turned out to be 9. Also, the Ki in assay [1] was 0.2 nM.
In the case of `COc1ccc([C@H](Cc2c(Cl)c[n+]([O-])cc2Cl)OC(=O)Cc2ccc(CN(C(=O)O[C@H]3CN4CCC3CC4)c3ccccc3)cc2)cc1OC`, the IC50 in assay [2] is 10 nM. This molecule had a Ki in assay [1] of 0.316 nM.
Regarding `COc1ccc([C@H](Cc2c(Cl)c[n+]([O-])cc2Cl)OC(=O)c2ccc(CN(C(=O)O[C@H]3CN4CCC3CC4)c3ccccc3)cc2)cc1OC`, the values for the 50% inhibitory concentration (IC50) in assay [2] and in assay [4] were 2 nM and 2.51 nM, respectively. Also, in assay [3], the pIC50 is given as 8.7. Moreover, in assay [1], the affinity corresponds to a Ki of 0.158 nM.
As to `COc1ccc([C@H](Cc2c(Cl)c[n+]([O-])cc2Cl)OC(=O)c2ccc(CN(C(=O)O[C@H]3CN4CCC3CC4)c3cccc(C(F)F)c3)s2)cc1OC`, the figures for the IC50 in assay [2] and in assay [4] were 0.316 nM and 0.2 nM, respectively. Besides, the pIC50 in assay [3] came to 8.8. In assay [1], this molecule gave a Ki of 3.16 nM.
With `O=C(O[C@@H](Cc1c(Cl)c[n+]([O-])cc1Cl)c1ccc(OC(F)F)c(OCC2CC2)c1)c1cccc(NC(C(=O)O[C@H]2CN3CCC2CC3)c2ccccc2)c1` (stereo not given in full), the pIC50 is on record as 9 in assay [5] and less than 6 in assay [3]. This molecule also showed a Ki in assay [1] of 0.794 nM.
Consider `O=C(O[C@@H](Cc1c(Cl)c[n+]([O-])cc1Cl)c1ccc(OC(F)F)c(OCC2CC2)c1)c1cccc(CN(C(=O)O[C@H]2CN3CCC2CC3)c2ccccc2)c1`, for which the results for the pIC50 in assay [5] and in assay [3] were 9.9 and 6.5, respectively. Further, in assay [1], the affinity corresponds to a Ki of 1.26 nM.
`O=C(O[C@@H](Cc1c(Cl)c[n+]([O-])cc1Cl)c1ccc(OC(F)F)c(OCC2CC2)c1)c1cccc(S(=O)(=O)NC(C(=O)O[C@H]2CN3CCC2CC3)c2ccccc2)c1` (stereo not given in full): the pIC50 in assay [5] was found to be 10; in assay [3] it was 7.3. This molecule had a Ki in assay [1] of 1.26 nM.
For the molecule `COc1ccc([C@H](Cc2c(Cl)c[n+]([O-])cc2Cl)OC(=O)c2ccc(CN(C(=O)O[C@H]3CN4CCC3CC4)c3cccc(F)c3)s2)cc1OC`, the IC50 was 1 nM in assay [2] and 0.631 nM in assay [4]. In assay [3], the pIC50 stood at 8.1. Further, affinity in assay [1] was put at a Ki of 0.2 nM.
Regarding `COc1ccc([C@H](Cc2c(Cl)c[n+]([O-])cc2Cl)OC(=O)c2ccc(CN(C(=O)O[C@H]3CN4CCC3CC4)c3nccs3)s2)cc1OC`, the IC50 in assay [2] is 0.631 nM; in assay [4] it was 0.501 nM. Also, the pIC50 in assay [3] is 8.4. The same molecule had an inhibition constant (Ki) in assay [1] of 0.794 nM.
`COc1ccc([C@H](Cc2c(Cl)c[n+]([O-])cc2Cl)OC(=O)c2ccc(CN(C(=O)O[C@H]3CN4CCC3CC4)c3cccc(O)c3)s2)cc1OC`: the IC50 in assay [2] was 0.794 nM; in assay [4], 0.398 nM. Also, the pIC50 in assay [3] was determined as 9. The Ki in assay [1] was 0.316 nM.
For `O=C(O[C@@H](Cc1c(Cl)c[n+]([O-])cc1Cl)c1ccc(OC(F)F)c(OCC2CC2)c1)c1cccc(CNC(C(=O)O[C@H]2CN3CCC2CC3)c2ccccc2)c1` (stereo not given in full), the values for the pIC50 in assay [5] and in assay [3] were 9.5 and 7.6, respectively. In addition, the Ki in assay [1] was 0.631 nM.
For `COc1ccc([C@H](Cc2c(Cl)c[n+]([O-])cc2Cl)OC(=O)c2cccc(NC(C(=O)O[C@H]3CN4CCC3CC4)c3ccccc3)c2)cc1OC` (stereo not given in full), the pIC50 in assay [5] stood at 9.8; in assay [3], 7.7. This molecule also showed a Ki in assay [1] of 0.398 nM.
As to `COc1ccc([C@H](Cc2c(Cl)c[n+]([O-])cc2Cl)OC(=O)c2cccc(S(=O)(=O)NC(C(=O)O[C@H]3CN4CCC3CC4)c3ccccc3)c2)cc1OC` (stereo not given in full), the values for the pIC50 in assay [5] and in assay [3] were 9.6 and 8.2, respectively. In assay [1], the affinity corresponds to a Ki of 0.631 nM.
In the case of `COc1ccc([C@H](Cc2c(Cl)c[n+]([O-])cc2Cl)OC(=O)c2cccc(CNC(C(=O)O[C@H]3CN4CCC3CC4)c3ccccc3)c2)cc1OC` (stereo in doubt; 86a), the pIC50 stood at 9.5 in assay [5] and 8.2 in assay [3]. For the same molecule, the Ki in assay [1] was 0.398 nM.
As for `COc1ccc([C@H](Cc2c(Cl)c[n+]([O-])cc2Cl)OC(=O)c2cccc(CNC(C(=O)O[C@H]3CN4CCC3CC4)c3ccccc3)c2)cc1OC` (stereo in doubt; 89), the IC50 in assay [2] is 3.98 nM; in assay [4], 1.26 nM. In assay [3], the pIC50 was 9. This molecule also gave a Ki in assay [1] of 0.158 nM.
In the case of `COc1ccc([C@H](Cc2c(Cl)c[n+]([O-])cc2Cl)OC(=O)c2cccc(CNC(C(=O)O[C@H]3CN4CCC3CC4)c3ccccc3)c2)cc1OC` (stereo in doubt; 90), the IC50 in assay [2] was 7.94 nM. For the same molecule, the pIC50 in assay [3] is given as 9.1; in assay [4], 8.6. In assay [1], this molecule gave a Ki of 0.2 nM.
As for `COc1ccc([C@H](Cc2c(Cl)c[n+]([O-])cc2Cl)OC(=O)c2ccc(CNC(C(=O)O[C@H]3CN4CCC3CC4)c3ccccc3F)s2)cc1OC` (stereo in doubt; 91b), the IC50 in assay [2] is 0.631 nM; in assay [4], 1 nM. The pIC50 in assay [3] worked out at 8.6. In assay [1], this molecule gave a Ki of 0.1 nM.
`COc1ccc([C@H](Cc2c(Cl)c[n+]([O-])cc2Cl)OC(=O)c2ccc(CN(C)C(C(=O)O[C@H]3CN4CCC3CC4)c3ccccc3)s2)cc1OC` (stereo in doubt; 91c): the results for the IC50 in assay [2] and in assay [4] were 2 nM and 3.16 nM, respectively. In assay [1], this molecule gave a Ki of 0.631 nM.
As to `COc1ccc([C@H](Cc2c(Cl)c[n+]([O-])cc2Cl)OC(=O)c2ccc(CNC(C(=O)OC3C[C@H]4CC[C@H](C3)N4C)c3ccccc3)s2)cc1OC` (stereo in doubt; 91d), the values for the half-inhibitory concentration (IC50) in assay [2], in assay [4] and in assay [6] were 1 nM, 2.51 nM and 10 nM, respectively. Besides, in assay [1], the Ki was 0.501 nM.
Consider `COc1ccc([C@H](Cc2c(Cl)c[n+]([O-])cc2Cl)OC(=O)c2ccc(CNC(C(=O)OC3CCN(C)CC3)c3ccccc3)s2)cc1OC` (stereo in doubt; 91e), for which the IC50 in assay [2] was 1 nM; in assay [4], 1.58 nM; in assay [6] it was 20 nM. Besides, the affinity in assay [1], expressed as Ki, was 10 nM.
The matching figures for `COc1ccc([C@H](Cc2c(Cl)c[n+]([O-])cc2Cl)OC(=O)c2ccc(CNC(C(=O)O[C@@H]3CCN(C)C3)c3ccccc3)s2)cc1OC` (stereo in doubt; 91f): 3.16 nM, 3.98 nM, 1 nM and 7.94 nM.
For the molecule `COc1ccc([C@H](Cc2c(Cl)c[n+]([O-])cc2Cl)OC(=O)c2ccc(CNC(C(=O)OC[C@H]3CN4CCC3CC4)c3ccccc3)s2)cc1OC` (stereo in doubt; 91g), the IC50 in assay [4] was 3.16 nM; in assay [6], 20 nM.
Turning to `COc1ccc([C@H](Cc2c(Cl)c[n+]([O-])cc2Cl)OC(=O)c2ccc(CNC(C(=O)OCC3CCN(C)CC3)c3ccccc3)s2)cc1OC` (stereo in doubt; 91h), in assay [4], the pIC50 is 8.4.
In the case of `COc1ccc([C@H](Cc2c(Cl)c[n+]([O-])cc2Cl)OC(=O)c2ccc(CNC(C(=O)OC[C@H]3CCN3C)c3ccccc3)s2)cc1OC` (stereo in doubt; 91i), in assay [4], the pIC50 amounted to 8.1. In addition, in assay [6], the IC50 is 20 nM.
In the case of `COc1ccc([C@H](Cc2c(Cl)c[n+]([O-])cc2Cl)OC(=O)c2ccc(CNC(C(=O)OCCN(C)C)c3ccccc3)s2)cc1OC` (stereo in doubt; 91j), the IC50 was 1 nM in assay [2], 3.16 nM in assay [4] and 79.4 nM in assay [6]. Further, in assay [1], the Ki is 12.6 nM.
With `COc1ccc([C@H](Cc2c(Cl)c[n+]([O-])cc2Cl)OC(=O)c2ccc(CNC(C(=O)O[C@H]3CN4CCC3CC4)c3ccccc3F)s2)cc1OC` (stereo in doubt; 92b), the results for the pIC50 in assay [2], in assay [3] and in assay [4] were 9.2, 8.5 and 8.9, respectively. The molecule further had a Ki in assay [1] of 0.158 nM.
As to `COc1ccc([C@H](Cc2c(Cl)c[n+]([O-])cc2Cl)OC(=O)c2ccc(CN(C)C(C(=O)O[C@H]3CN4CCC3CC4)c3ccccc3)s2)cc1OC` (stereo in doubt; 92c), the IC50 in assay [2] was 3.16 nM. For the same molecule, in assay [4], the pIC50 is listed as 8.7. This molecule gave a pKi in assay [1] of 9.2.
Take `COc1ccc([C@H](Cc2c(Cl)c[n+]([O-])cc2Cl)OC(=O)c2ccc(CNC(C(=O)OC3C[C@H]4CC[C@H](C3)N4C)c3ccccc3)s2)cc1OC` (stereo in doubt; 92d): the negative-log IC50 (pIC50) in assay [2] turned out to be 9. The same molecule showed a Ki in assay [1] of 10 nM.
`COc1ccc([C@H](Cc2c(Cl)c[n+]([O-])cc2Cl)OC(=O)c2ccc(CNC(C(=O)OC[C@H]3CN4CCC3CC4)c3ccccc3)s2)cc1OC` (stereo in doubt; 92g): the pIC50 in assay [4] is 8.4. In addition, the half-maximal inhibitory concentration (IC50) in assay [6] is 3.16 nM.
Take `COc1ccc([C@H](Cc2c(Cl)c[n+]([O-])cc2Cl)OC(=O)c2ccc(CNC(C(=O)OCC3CCN(C)CC3)c3ccccc3)s2)cc1OC` (stereo in doubt; 92h): the pIC50 in assay [4] amounted to 8.8. Besides, in assay [6], the IC50 is 5.01 nM.
With `COc1ccc([C@H](Cc2c(Cl)c[n+]([O-])cc2Cl)OC(=O)c2ccc(CNC(C(=O)OC[C@H]3CCN3C)c3ccccc3)s2)cc1OC` (stereo in doubt; 92i), the IC50 in assay [6] was 5.01 nM.
Take `COc1ccc([C@H](Cc2c(Cl)c[n+]([O-])cc2Cl)OC(=O)c2ccc(CNC(C(=O)OCCN(C)C)c3ccccc3)s2)cc1OC` (stereo in doubt; 92j): the results for the IC50 in assay [2] and in assay [6] were 0.631 nM and 12.6 nM, respectively. For the same molecule, the Ki in assay [1] was 0.398 nM.
